The supplement of paper PMC13380429

What was measured:
Settings in all cases: 72 h
Caco-2 [1] = assay: cell viability relative to DMSO; higher = less toxic
Calu-3 [2] = assay: as above
HepG2 [3] = assay: as above
U2OS [4] = assay: as above
Caco-2 [5] = assay: relative viability EC50 (midpoint between 100% and the lowest measured viability); higher = less toxic
Calu-3 [6] = assay: as above
HepG2 [7] = assay: as above
U2OS [8] = assay: as above
Caco-2 [9] = assay: drug sensitivity score (DSS) for viability; higher = more toxic; extreme values may be limits of the assay
Calu-3 [10] = assay: as above
HepG2 [11] = assay: as above
U2OS [12] = assay: as above
Vero E6 [13] = assay: cell viability relative to DMSO; higher = less toxic
Vero E6 [14] = assay: relative viability EC50 (midpoint between 100% and the lowest measured viability); higher = less toxic
Vero E6 [15] = assay: drug sensitivity score (DSS) for viability; higher = more toxic; extreme values may be limits of the assay

Compound	cell viability (Caco-2 [1]; 1 nM)	cell viability (Caco-2 [1]; 10 nM)	cell viability (Caco-2 [1]; 100 nM)	cell viability (Caco-2 [1]; 1000 nM)	cell viability (Caco-2 [1]; 10000 nM)	cell viability (Calu-3 [2]; 1 nM)	cell viability (Calu-3 [2]; 10 nM)	cell viability (Calu-3 [2]; 100 nM)	cell viability (Calu-3 [2]; 1000 nM)	cell viability (Calu-3 [2]; 10000 nM)	cell viability (HepG2 [3]; 1 nM)	cell viability (HepG2 [3]; 10 nM)	cell viability (HepG2 [3]; 100 nM)	cell viability (HepG2 [3]; 1000 nM)	cell viability (HepG2 [3]; 10000 nM)	cell viability (U2OS [4]; 1 nM)	cell viability (U2OS [4]; 10 nM)	cell viability (U2OS [4]; 100 nM)	cell viability (U2OS [4]; 1000 nM)	cell viability (U2OS [4]; 10000 nM)	relative viability EC50 (Caco-2 [5])	relative viability EC50 (Calu-3 [6])	relative viability EC50 (HepG2 [7])	relative viability EC50 (U2OS [8])	drug sensitivity score (Caco-2 [9])	drug sensitivity score (Calu-3 [10])	drug sensitivity score (HepG2 [11])	drug sensitivity score (U2OS [12])	cell viability (Vero E6 [13]; 1 nM)	cell viability (Vero E6 [13]; 10 nM)	cell viability (Vero E6 [13]; 100 nM)	cell viability (Vero E6 [13]; 1000 nM)	cell viability (Vero E6 [13]; 10000 nM)	relative viability EC50 (Vero E6 [14])	drug sensitivity score (Vero E6 [15])
C=CCN1CCc2cc(O)c(O)cc2[C@H](c2ccccc2)C1	95.1%	91.8%	86.5%	99.5%	79.4%	89.8%	92%	103%	103%	99%	100%	93.3%	105%	92.5%	86.9%	99.7%	99.3%	96.9%	102%	92.8%	> 10 µM	> 10 µM	> 10 µM	> 10 µM	0.7	0	0.5	0	–	–	–	–	–	–	–
CC(=O)O/N=C1\C(=O)N(Cc2cc(Cl)ccc2Cl)c2ccc(Cl)cc21	97.3%	92%	104%	91%	83.9%	103%	90.7%	93.9%	98.4%	61.8%	97.9%	97.7%	104%	108%	86.9%	100%	99%	97.7%	96.6%	97.3%	> 10 µM	–	> 10 µM	> 10 µM	1	2.1	0	0	98.3%	105%	97.3%	98.7%	97.9%	> 10 µM	0
COc1ccc2c(NC(=O)Nc3cccc(C(F)(F)F)n3)ccnc2c1	97.7%	106%	100%	95.5%	93.4%	97.6%	99%	96.1%	94.8%	93.6%	108%	108%	93.8%	105%	95.6%	102%	96.6%	106%	101%	104%	> 10 µM	> 10 µM	> 10 µM	> 10 µM	0	0	0	0	–	–	–	–	–	–	–
COc1cccc(OCCCN)c1-c1cc(Nc2cnc(C#N)cn2)n[nH]1	98.9%	101%	86.7%	15.5%	21%	106%	99.9%	69.6%	48.1%	57.8%	97.4%	97.4%	35.7%	38.3%	25.6%	101%	86.7%	5.2%	2.8%	2.5%	0.194 µM	0.0872 µM	0.0431 µM	0.022 µM	17.6	13.3	21.7	31.6	92.9%	101%	84.9%	61.1%	65.3%	–	9
N#Cc1ccccc1OCC(O)CNCCNC(=O)Nc1ccccc1 (centres undefined)	101%	102%	91.4%	99.5%	101%	100%	94.7%	102%	92.8%	92.4%	108%	102%	110%	107%	93.6%	99.5%	94.3%	95.3%	95.7%	97.1%	> 10 µM	> 10 µM	> 10 µM	> 10 µM	0	0	0	0	–	–	–	–	–	–	–
N[C@@H](CC(=O)Nc1ccc(Oc2cc(F)c(F)cc2Br)cc1)C(=O)O	94.8%	88.1%	98.6%	87%	99%	–	–	–	–	–	94.2%	92.6%	91.7%	111%	104%	99%	94.4%	101%	94.7%	102%	> 10 µM	–	> 10 µM	> 10 µM	0	–	0	0	91%	98.3%	95.1%	101%	105%	> 10 µM	0
O=C(Nc1ccc([N+](=O)[O-])cc1O)Nc1ccccc1Br	98.6%	103%	102%	77%	40.5%	102%	98.2%	88.4%	108%	59.3%	89.9%	101%	89.7%	92%	32.5%	98.3%	99.6%	96.9%	87%	36.6%	1.2 µM	–	2.19 µM	1.72 µM	6.4	1.6	5.1	5.6	101%	98.3%	94.5%	85.7%	34.8%	1.66 µM	5.9
c1ccc(CCCCN2CCC(c3ccccc3)CC2)cc1 [4-PPBP]	94.7%	94.9%	89.8%	86.1%	84.4%	93%	111%	96.7%	95.1%	69.3%	99.8%	103%	101%	93.8%	77.9%	90.7%	91.2%	96.1%	94.7%	84.6%	> 10 µM	–	> 10 µM	> 10 µM	1.4	2.2	1.6	0	100%	102%	102%	99.7%	90%	> 10 µM	0
COc1cccc(-c2cc(NCc3ccc4c(c3)OCO4)nc(N)n2)c1 [BML-284]	104%	93.4%	102%	62.4%	46.6%	104%	92.9%	102%	66.9%	62.4%	97.7%	97.2%	93.9%	52.9%	30.5%	92.8%	97%	95.8%	49.8%	27.7%	0.707 µM	–	0.572 µM	0.59 µM	7.3	5.8	9.8	10.3	102%	99.9%	101%	29.8%	27.6%	0.349 µM	12.8
Cc1cnc(CNC(=O)c2c(=O)c3ccc(N4CCCN(C)CC4)nc3n3c2sc2ccccc23)cn1 [CX-5461]	106%	114%	95.5%	121%	75.9%	93.9%	105%	100%	100%	84%	110%	108%	110%	71.6%	30.5%	99.5%	102%	96.9%	106%	98.4%	> 10 µM	> 10 µM	1.16 µM	> 10 µM	0.5	0.3	7.6	0	114%	92.3%	106%	84.2%	53.3%	–	4.7
Cc1c(C)c2c(c(C)c1OC(=O)CCC(=O)O)CC[C@@](C)(CCC[C@H](C)CCC[C@H](C)CCCC(C)C)O2 [D-alpha-tocopheryl-succinate]	98.2%	104%	106%	96.5%	102%	–	–	–	–	–	95.4%	109%	95.3%	106%	113%	–	–	–	–	–	> 10 µM	–	> 10 µM	–	0	–	0	–	97.8%	101%	97.9%	102%	111%	> 10 µM	0
CS(=O)(=O)c1ccc(Oc2cc(F)cc(C#N)c2)c2c1[C@H](O)C(F)(F)C2 [PT-2385]	102%	94.9%	88.9%	86.3%	95.2%	–	–	–	–	–	103%	107%	97.4%	97.2%	104%	103%	97.3%	98.7%	100%	99.4%	> 10 µM	–	> 10 µM	> 10 µM	1.7	–	0	0	101%	99.6%	100%	96.9%	105%	> 10 µM	0
N#Cc1c(Oc2ccc(F)c(NC(=O)Cc3cccc(C(F)(F)F)c3)c2)ccc2nc(NC(=O)C3CC3)sc12 [TAK-632]	100%	99.4%	91.8%	84.9%	55.6%	105%	105%	110%	93%	61.6%	99.9%	106%	85.1%	29%	17.2%	97.9%	102%	94.8%	99%	37.8%	–	–	0.289 µM	3.05 µM	3.8	3	14.9	3.5	100%	106%	104%	79%	32.3%	1.37 µM	6.8
O=C(NNC(=O)c1ccc(CNS(=O)(=O)c2ccc(F)c(Cl)c2)cc1)c1ccccc1 [TCN201]	109%	108%	99.1%	99.8%	103%	–	–	–	–	–	89.3%	108%	97%	90.7%	97.7%	96.3%	99.8%	97.7%	94%	96.4%	> 10 µM	–	> 10 µM	> 10 µM	0	–	0	0	104%	98.5%	98.4%	102%	102%	> 10 µM	0
CCN1CCN(Cc2ccc(Nc3ncc(F)c(-c4cc(F)c5nc(C)n(C(C)C)c5c4)n3)nc2)CC1 [abemaciclib]	109%	97.2%	90.7%	78.8%	67.8%	106%	108%	89.4%	63%	74.7%	101%	94.8%	84.1%	47.1%	0.9%	107%	107%	108%	87.6%	0.1%	–	–	0.741 µM	2.16 µM	4.2	8.1	12.5	7.6	101%	100%	95.3%	77.9%	38%	1.35 µM	6.1
